From US7981903B2, “2-[2-{phenylamino}-1H-pyrrolo[2,3-D]pyrimidin-4-yl)amino] benzamide derivatives as IGF-1R inhibitors for the treatment of cancer” (GlaxoSmithKline LLC, priority 2007, dated 2011)

Tests used:
NCI-H929 = assay: Inhibition of cell proliferation (CellTiter-Glo or InCell analyzer), NCI-H929; type: cell-based; conditions: Homo sapiens, 72 h / 3 days, values given as IC50 category
Summary of the method: In one

Colo205 = assay: Inhibition of cell proliferation (CellTiter-Glo or InCell analyzer), Colo205; type: cell-based; conditions: Homo sapiens, COLO 205, 72 h / 3 days, values given as IC50 category
Summary of the method: In one

ALK = ALK (Homo sapiens, UniProt Q9UM73); assay: ALK enzyme assay (HTRF); type: biochemical; conditions: 0.25 nM ALK, 15.0 μM ATP, values given as pIC50 category
ALK, sequence (Q9UM73 19-1620): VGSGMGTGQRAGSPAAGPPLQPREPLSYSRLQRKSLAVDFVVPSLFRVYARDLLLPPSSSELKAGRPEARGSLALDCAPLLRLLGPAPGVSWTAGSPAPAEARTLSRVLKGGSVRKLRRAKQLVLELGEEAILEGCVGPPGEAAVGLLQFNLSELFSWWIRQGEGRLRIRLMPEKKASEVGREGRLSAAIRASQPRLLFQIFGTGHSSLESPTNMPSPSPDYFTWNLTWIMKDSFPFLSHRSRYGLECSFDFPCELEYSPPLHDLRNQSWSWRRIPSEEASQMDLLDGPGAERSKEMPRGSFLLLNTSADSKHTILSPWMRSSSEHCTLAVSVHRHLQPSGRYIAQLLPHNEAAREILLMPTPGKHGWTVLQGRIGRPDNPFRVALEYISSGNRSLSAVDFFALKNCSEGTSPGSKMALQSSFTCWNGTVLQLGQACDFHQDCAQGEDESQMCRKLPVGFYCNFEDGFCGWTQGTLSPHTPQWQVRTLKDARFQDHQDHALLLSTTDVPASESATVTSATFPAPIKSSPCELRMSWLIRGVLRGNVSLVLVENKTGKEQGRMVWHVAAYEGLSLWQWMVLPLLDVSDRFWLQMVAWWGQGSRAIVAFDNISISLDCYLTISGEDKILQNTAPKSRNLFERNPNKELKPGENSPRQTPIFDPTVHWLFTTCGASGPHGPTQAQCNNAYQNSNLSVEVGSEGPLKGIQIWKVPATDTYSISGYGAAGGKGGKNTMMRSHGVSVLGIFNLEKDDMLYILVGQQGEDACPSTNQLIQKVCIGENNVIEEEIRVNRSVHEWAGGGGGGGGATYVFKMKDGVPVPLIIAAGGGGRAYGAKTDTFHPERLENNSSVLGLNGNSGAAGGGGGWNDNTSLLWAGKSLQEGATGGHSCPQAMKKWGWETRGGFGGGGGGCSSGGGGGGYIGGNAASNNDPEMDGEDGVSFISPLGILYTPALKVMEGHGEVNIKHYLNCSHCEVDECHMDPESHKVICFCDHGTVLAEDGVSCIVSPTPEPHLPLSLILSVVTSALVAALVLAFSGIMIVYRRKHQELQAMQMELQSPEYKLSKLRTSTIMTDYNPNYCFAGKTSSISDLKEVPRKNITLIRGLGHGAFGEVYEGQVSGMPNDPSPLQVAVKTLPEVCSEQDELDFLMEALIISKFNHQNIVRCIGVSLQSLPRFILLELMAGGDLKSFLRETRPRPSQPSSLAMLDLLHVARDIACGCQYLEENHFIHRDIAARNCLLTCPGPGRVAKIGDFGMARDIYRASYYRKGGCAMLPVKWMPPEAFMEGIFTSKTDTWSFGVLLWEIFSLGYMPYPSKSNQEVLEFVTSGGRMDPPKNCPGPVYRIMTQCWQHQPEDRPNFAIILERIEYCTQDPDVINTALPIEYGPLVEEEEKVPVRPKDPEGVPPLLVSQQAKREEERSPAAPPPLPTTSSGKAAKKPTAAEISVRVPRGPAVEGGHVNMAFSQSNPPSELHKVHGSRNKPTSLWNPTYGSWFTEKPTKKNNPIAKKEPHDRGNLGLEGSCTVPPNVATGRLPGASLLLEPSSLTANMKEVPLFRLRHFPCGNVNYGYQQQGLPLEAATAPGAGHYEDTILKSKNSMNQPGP
Summary of the method: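 Final compound range 0.00017 to 10 μM (twelve 1:3 dilutions). Kinase reaction with ATP and biotinylated synthetic peptide runs 120 min at 20° C, stopped with EDTA; phosphotyrosine detected by HTRF after 60 min. Inhibition referenced to DMSO (1%) and EDTA (0.1 M) controls, curve-fitted.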

[1] = target: T1, NIH-3T3 cells overexpressing human IR (Homo sapiens, UniProt P06213); assay: IR cellular autophosphorylation (DELFIA); type: cell-based; conditions: 2 h compound, insulin 3 ug/ml for 15 minutes, IC50 category
T1 construct: expressed in transfected cells; host or cells: NIH-3T3 (mouse fibroblasts)
T1 sequence (P06213 28-1382): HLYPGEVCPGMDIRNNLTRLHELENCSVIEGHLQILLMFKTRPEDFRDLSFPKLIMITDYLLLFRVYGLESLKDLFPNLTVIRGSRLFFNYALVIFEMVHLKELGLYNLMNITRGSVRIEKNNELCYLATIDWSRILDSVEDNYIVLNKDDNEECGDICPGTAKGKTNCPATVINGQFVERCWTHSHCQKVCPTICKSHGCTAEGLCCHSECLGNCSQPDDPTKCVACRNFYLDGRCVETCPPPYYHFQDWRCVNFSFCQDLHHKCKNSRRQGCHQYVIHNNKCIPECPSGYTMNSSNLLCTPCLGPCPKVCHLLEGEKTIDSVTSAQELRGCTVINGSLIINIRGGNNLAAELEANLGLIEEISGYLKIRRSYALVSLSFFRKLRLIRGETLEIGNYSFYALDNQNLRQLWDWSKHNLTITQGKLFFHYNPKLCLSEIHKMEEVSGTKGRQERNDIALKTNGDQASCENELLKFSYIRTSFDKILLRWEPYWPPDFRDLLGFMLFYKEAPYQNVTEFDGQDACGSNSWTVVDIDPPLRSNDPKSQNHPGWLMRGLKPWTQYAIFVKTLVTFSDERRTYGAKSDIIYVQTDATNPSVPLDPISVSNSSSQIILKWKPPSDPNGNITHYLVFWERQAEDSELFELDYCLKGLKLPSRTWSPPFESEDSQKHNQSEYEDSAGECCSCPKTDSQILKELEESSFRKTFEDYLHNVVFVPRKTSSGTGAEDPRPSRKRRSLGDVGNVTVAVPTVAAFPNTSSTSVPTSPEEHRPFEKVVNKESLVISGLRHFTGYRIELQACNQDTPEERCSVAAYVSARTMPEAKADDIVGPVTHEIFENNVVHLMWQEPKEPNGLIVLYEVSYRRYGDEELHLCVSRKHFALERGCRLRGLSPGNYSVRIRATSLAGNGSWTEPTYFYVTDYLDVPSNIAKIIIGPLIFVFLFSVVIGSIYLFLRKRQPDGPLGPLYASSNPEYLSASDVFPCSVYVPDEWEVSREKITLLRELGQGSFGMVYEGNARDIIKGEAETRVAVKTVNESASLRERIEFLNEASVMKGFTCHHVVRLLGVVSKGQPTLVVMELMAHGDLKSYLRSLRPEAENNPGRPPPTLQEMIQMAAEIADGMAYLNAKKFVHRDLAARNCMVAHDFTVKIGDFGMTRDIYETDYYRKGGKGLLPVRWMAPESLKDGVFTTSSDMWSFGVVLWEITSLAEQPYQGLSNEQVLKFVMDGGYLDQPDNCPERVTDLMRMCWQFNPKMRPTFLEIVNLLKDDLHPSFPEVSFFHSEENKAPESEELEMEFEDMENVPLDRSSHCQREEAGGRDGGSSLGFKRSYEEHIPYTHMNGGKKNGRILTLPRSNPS
Summary of the method: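 Receptor autophosphorylation measured by DELFIA, capturing IGF-1R or IRβ and detecting with europium anti-pTyr, reported as percent of IGF-1- or insulin-stimulated signal. Compounds (30 uM to 1.5 nM) added 2 h before ligand, then 15 min stimulation (IGF-1 30 ng/ml or insulin 3 ug/ml).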

| IC50 (NCI-H929) | IC50 (Colo205) | IC50 (ALK) | IC50 [1] | SMILES |
| --- | --- | --- | --- | --- |
| < 250 nM | 250 to 1000 nM | 0.251 to 1 nM | > 500 nM | CNC(=O)c1c(F)cccc1Nc1nc(Nc2cc(NC(=O)CN(C)C)ccc2OC)nc2[nH]ccc12 [Example 245, 2-[(2-{[5-[(N,N-dimethylglycyl)amino]-2-(methyloxy)phenyl]amino}-1H-pyrrolo[2,3-d]pyrimidin-4-yl)amino]-6-fluoro-N-methylbenzamide] |
| < 250 nM | 250 to 1000 nM | 5.01 to 200 nM | 100 to 500 nM | Cc1cc2c(cc1Nc1nc(Nc3cccc(F)c3C(N)=O)c3cc[nH]c3n1)N(C(=O)CN(C)C)CCC2 [Example 246, 2-[(2-{[1-(N,N-dimethylglycyl)-6-methyl-1,2,3,4-tetrahydro-7-quinolinyl]amino}-1H-pyrrolo[2,3-d]pyrimidin-4-yl)amino]-6-fluorobenzamide] |
| 250 to 1000 nM | 250 to 1000 nM | 0.251 to 1 nM | 100 to 500 nM | CNC(=O)c1c(F)cccc1Nc1nc(Nc2cc3c(cc2OC)CCN3C(=O)CN(C)C)nc2[nH]cc(F)c12 [Example 253, 2-[(2-{[1-(N,N-dimethylglycyl)-5-(methyloxy)-2,3-dihydro-1H-indol-6-yl]amino}-5-fluoro-1H-pyrrolo[2,3-d]pyrimidin-4-yl)amino]-6-fluoro-N-methylbenzamide] |
